Results reported in US20250313563A1, “GLYCOGEN SYNTHASE KINASE 3 INHIBITORS AND USES THEREOF” (The Broad Institute, Inc., priority 2022, published 2025).
Where two headings read alike, the source gives them in different places.

Columns and labels:
[1] = target: GSK3α (GST-full length GSK3α) (Homo sapiens (Human), UniProt P49840); assay: GSK3α TR-FRET kinase assay; type: biochemical
Method in brief: (§1)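 Compound was preincubated 30 min with 1 nM GST-GSK3 enzyme. Reaction ran 100 min at ambient temperature in Tris pH 7.5/MgCl2 with 200 nM biotinylated pS645-glycogen synthase 631-650 peptide and ATP (4 μM GSK3α, 2 μM GSK3b, or 1 mM). The EDTA-stopped reaction was read by TR-FRET (Tb-anti-pSer641/streptavidin-d2), and IC50s were fitted.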

[2] = target: GSK3b (GST-full length GSK3b) (Homo sapiens (Human), UniProt P49841); assay: GSK3b TR-FRET kinase assay; type: biochemical
Method in brief: as §1

[3] = 1 nM GSK3α, 4 μM ATP, 30 minute preincubation, geometric mean, read-out: GSK3-A TR-FRET BIOCHEMICAL (TR-FRET), GMean, IC50
[4] = 1 nM GSK3b, 2 μM ATP, 30 minute preincubation, geometric mean, read-out: GSK3-B TR-FRET BIOCHEMICAL (TR-FRET), GMean, IC50
[5] = 1 nM GSK3α, 4 μM ATP, 30 minute preincubation, Table 16, read-out: GSK3-A TR-FRET BIOCHEMICAL (TR-FRET), IC50
[6] = 1 nM GSK3b, 2 μM ATP, 30 minute preincubation, Table 16, read-out: GSK3-B TR-FRET BIOCHEMICAL (TR-FRET), IC50
[7] = 1 nM GSK3α, 4 μM ATP, 30 minute preincubation, read-out: GSK3-A TR-FRET BIOCHEMICAL (TR-FRET), IC50
[8] = GSK3-A (TR-FRET 1 mM ATP), GMean, IC50, 1 mM ATP, geometric mean
[9] = 1 nM GSK3b, 2 μM ATP, 30 minute preincubation, read-out: GSK3-B TR-FRET BIOCHEMICAL (TR-FRET), IC50
[10] = GSK3-B (TR-FRET 1 mM ATP), GMean, IC50, 1 mM ATP, geometric mean
[11] = 1 nM GSK3α, 4 μM ATP, 30 minute preincubation, Table 16, read-out: GSK3-A TR-FRET BIOCHEMICAL (TR-FRET)
[12] = 1 nM GSK3b, 2 μM ATP, 30 minute preincubation, Table 16, read-out: GSK3-B TR-FRET BIOCHEMICAL (TR-FRET)
[13] = read-out: GSK3-A (TR-FRET 1 mM ATP), GMean, IC50, 1 mM ATP, geometric mean
[14] = read-out: GSK3-B (TR-FRET 1 mM ATP), GMean, IC50, 1 mM ATP, geometric mean

Chain of GSK3b (GST-full length GSK3b) (P49841 whole entry): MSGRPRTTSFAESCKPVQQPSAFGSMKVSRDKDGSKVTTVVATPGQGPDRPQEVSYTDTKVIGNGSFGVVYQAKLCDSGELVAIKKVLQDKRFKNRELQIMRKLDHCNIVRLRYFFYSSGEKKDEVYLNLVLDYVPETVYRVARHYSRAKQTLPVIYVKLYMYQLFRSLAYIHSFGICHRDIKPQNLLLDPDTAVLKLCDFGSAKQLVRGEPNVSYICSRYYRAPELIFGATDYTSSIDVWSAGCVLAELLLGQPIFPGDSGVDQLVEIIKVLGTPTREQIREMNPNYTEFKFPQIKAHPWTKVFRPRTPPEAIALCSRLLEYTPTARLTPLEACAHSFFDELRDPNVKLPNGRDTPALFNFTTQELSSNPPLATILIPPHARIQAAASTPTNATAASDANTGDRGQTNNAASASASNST
Chain of GSK3α (GST-full length GSK3α) (P49840 whole entry): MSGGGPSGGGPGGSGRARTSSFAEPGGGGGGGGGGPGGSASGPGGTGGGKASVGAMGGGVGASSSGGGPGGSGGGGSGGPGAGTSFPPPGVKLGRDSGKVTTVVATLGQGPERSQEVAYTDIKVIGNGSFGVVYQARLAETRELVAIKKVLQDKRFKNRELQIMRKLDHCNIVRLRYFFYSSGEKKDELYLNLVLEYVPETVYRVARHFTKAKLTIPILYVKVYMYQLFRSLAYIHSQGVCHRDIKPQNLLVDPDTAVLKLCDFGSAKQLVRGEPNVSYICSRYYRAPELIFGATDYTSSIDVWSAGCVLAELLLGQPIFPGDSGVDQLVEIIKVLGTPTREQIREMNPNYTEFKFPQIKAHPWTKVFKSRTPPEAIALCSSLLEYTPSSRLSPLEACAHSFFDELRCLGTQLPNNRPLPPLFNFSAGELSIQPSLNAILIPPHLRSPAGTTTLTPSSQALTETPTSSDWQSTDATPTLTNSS

Structure (SMILES) | IC50 [1, 5] [nM] | IC50 [2, 6] [nM] | IC50 [1, 11] [nM] | IC50 [2, 12] [nM] | other results
CC[C@@]1(c2cccc(-c3ccnn3C)c2)C2=C(C[C@@](C)(COC)NC2=O)Nc2n[nH]cc21 [Compound 947908] |  |  |  |  | IC50 [1, 3]: 1000 to 5000 nM; IC50 [2, 4]: > 5000 nM
CC1(C)CC(=O)C2=C(C1)Nc1n[nH]cc1[C@]21CCN(S(=O)(=O)CC2CC2)C1 [Compound 951723] |  |  |  |  | IC50 [1, 7]: ≤ 100 nM; IC50 [1, 8]: ≤ 100 nM; IC50 [2, 9]: ≤ 100 nM; IC50 [2, 10]: 100 to 1000 nM
CCC1(c2cccc(C(F)(F)F)c2)C2=C(CC(C)N(c3cnc(OC)nc3)C2=O)Nc2n[nH]cc21 (stereo not shown) [Compound 949351] | ≤ 100 | 100 to 1000 |  |  | 
CCC1(c2cccc(N(C)c3nc(C)cc(C)n3)c2)C2=C(CC(C)(C)CC2=O)Nc2n[nH]cc21 (stereo not shown) [Compound 926304] | 100 to 1000 | 1000 to 5000 |  |  | 
CC[C@@]1(c2ccccc2)C2=C(C[C@@](C)(C(F)(F)F)CC2=O)Nc2n[nH]cc21 [Compound 819571] |  |  |  |  | IC50 [1, 3]: > 5000 nM; IC50 [2, 4]: > 5000 nM
CCC1(c2cccc(S(=O)(=O)C(C)C)c2)C2=C(CC(C)(C)CC2=O)Nc2n[nH]cc21 (stereo not shown) [Compound 913134] | 100 to 1000 | 1000 to 5000 |  |  | 
CCC1(c2cccc(-c3cnn(C)c3)c2)C2=C(CC(C)CC2=O)Nc2n[nH]cc21 (stereo not shown) [Compound 816752] |  |  |  |  | IC50 [1, 3]: ≤ 100 nM; IC50 [2, 4]: 1000 to 5000 nM
CCC1(c2cccc(C(F)(F)F)c2)C2=C(CCN(c3cnn(C)c3C)C2=O)Nc2n[nH]cc21 (stereo not shown) [Compound 952262] | > 5000 | > 5000 |  |  | 
CC[C@@]1(c2cccc(-c3ccnc(C)c3)c2)C2=C(CC(C)(C)[C@H](F)C2=O)Nc2n[nH]cc21 [Compound 945486] |  |  | 1000 to 5000 | > 5000 | 
CCC1(c2cccc(C(F)(F)F)c2)C2=C(CN(Cc3ccccc3)C2=O)Nc2n[nH]cc21 (stereo not shown) [Compound 917159] |  |  | ≤ 100 | 100 to 1000 | 
CCC1(c2cccc(N(C)c3nccc(C)n3)c2)C2=C(CC(C)(C)CC2=O)Nc2n[nH]cc21 (stereo not shown) [Compound 942642] |  |  | ≤ 100 | ≤ 100 | IC50 [1, 13]: ≤ 100 nM; IC50 [2, 14]: 1000 to 5000 nM
CC1(C)CC(=O)C2=C(C1)Nc1n[nH]cc1C2(c1ccccc1)c1ccccc1 [Compound 789461] |  |  |  |  | IC50 [1, 3]: 1000 to 5000 nM; IC50 [2, 4]: > 5000 nM
CC[C@]1(c2ccccc2)C2=C(C[C@@]3(CCOC3)CC2=O)Nc2n[nH]cc21 [Compound 816881] |  |  |  |  | IC50 [1, 3]: 100 to 1000 nM; IC50 [2, 4]: 1000 to 5000 nM
CCC1(c2cccc(-c3ccncc3)c2)C2=C(CC(C)(C)CC2=O)Nc2n[nH]c(C(F)(F)F)c21 (stereo not shown) [Compound 917292] | 100 to 1000 | 100 to 1000 |  |  | IC50 [1, 13]: > 5000 nM; IC50 [2, 14]: > 5000 nM
CCC1(c2cccc(-c3ccncc3Cl)c2)C2=C(CC(C)(C)NC2=O)Nc2n[nH]cc21 (stereo not shown) [Compound 948142] |  |  |  |  | IC50 [1, 3]: ≤ 100 nM; IC50 [1, 13]: ≤ 100 nM; IC50 [2, 4]: ≤ 100 nM; IC50 [2, 14]: 100 to 1000 nM
CC1(C)CC(=O)C2=C(C1)Nc1n[nH]cc1C2(C)c1cc(F)cc(F)c1 (stereo not shown) [Compound 785735] |  |  |  |  | IC50 [1, 3]: 100 to 1000 nM; IC50 [2, 4]: > 5000 nM
CCC1(c2cccc(C(F)(F)F)c2)C2=C(CCN(c3cccs3)C2=O)Nc2n[nH]cc21 (stereo not shown) [Compound 950614] | ≤ 100 | 100 to 1000 |  |  | 
CC[C@]1(c2cccc(-c3cc(C)ncc3C)c2)C2=C(CC(C)(C)CC2=O)Nc2n[nH]cc21 [Compound 943515] |  |  | 1000 to 5000 | > 5000 | 
CCC1(c2cccc(C(F)(F)F)c2)C2=C(CCN(c3cccnc3)C2=O)Nc2n[nH]cc21 (stereo not shown) [Compound 945637] |  |  |  |  | IC50 [1, 7]: ≤ 100 nM; IC50 [2, 9]: 100 to 1000 nM
CC[C@]1(c2ccccc2)C2=C(C[C@@]3(CCN(C)C3=O)CC2=O)Nc2n[nH]cc21 [Compound 949753] |  |  | 1000 to 5000 | > 5000 | 
CCC1(c2cccc(S(=O)(=O)C3CC3)c2)C2=C(CC(C)(C)CC2=O)Nc2n[nH]cc21 (stereo not shown) [Compound 912171] |  |  |  |  | IC50 [1, 13]: ≤ 100 nM; IC50 [2, 14]: 100 to 1000 nM
CCC1(c2cccc(-c3ccnc(OC)c3)c2)C2=C(CC(C)(C)CC2=O)Nc2n[nH]cc21 (stereo not shown) [Compound 883850] | ≤ 100 | 100 to 1000 |  |  | 

The next lines start with results.

IC50 [1, 5] [nM] | IC50 [2, 6] [nM] | IC50 [1, 11] [nM] | IC50 [2, 12] [nM] | Structure (SMILES) | other results
> 5000 | > 5000 |  |  | CC1(C)CC(=O)C2=C(C1)Nc1n[nH]cc1C21CN(CCc2ccccc2)C1 [Compound 929441] | 
≤ 100 | ≤ 100 |  |  | CC[C@@]1(c2cccc(N(C)c3cnccn3)c2)C2=C(CC(C)(C)CC2=O)Nc2n[nH]cc21 [Compound 915316] | 
 |  | ≤ 100 | ≤ 100 | Cn1nccc1S(=O)(=O)N1CCC2(CC1)C1=C(CC(C)(C)CC1=O)Nc1n[nH]cc12 [Compound 932649] | 
 |  | ≤ 100 | ≤ 100 | CC1(C)CC(=O)C2=C(C1)Nc1n[nH]cc1C21CCN(S(C)(=O)=O)C1 (stereo not shown) [Compound 912092] | 
 |  | ≤ 100 | 100 to 1000 | CC1(C)CC(=O)C2=C(C1)Nc1n[nH]cc1[C@@]21CCCN(S(=O)(=O)C2CC2)CC1 [Compound 932639] | 
 |  | 100 to 1000 | 1000 to 5000 | CCC1(c2cccc(-c3cnnn3C)c2)C2=C(CC(C)(C)CC2=O)Nc2n[nH]cc21 (stereo not shown) [Compound 947824] | 
1000 to 5000 | > 5000 |  |  | CC[C@]1(c2cc(-c3ccncc3)ccc2F)C2=C(CC(C)(C)CC2=O)Nc2n[nH]cc21 [Compound 893324] | 
 |  | 100 to 1000 | 100 to 1000 | CC1(C)CC(=O)C2=C(C1)Nc1n[nH]cc1[C@@]21CC[C@H](C(F)(F)F)C1 [Compound 952434] | 
> 5000 | > 5000 |  |  | CC1OCCC12C1=C(CC(C)(C)CC1=O)Nc1n[nH]cc12 (stereo not shown) [Compound 911958] | 
 |  | ≤ 100 | ≤ 100 | CC1(C)CC(=O)C2=C(C1)Nc1n[nH]cc1C21CN(S(=O)(=O)C2CC2)C1 [Compound 913259] | 
≤ 100 | ≤ 100 |  |  | CC1(C)CC(=O)C2=C(C1)Nc1n[nH]cc1C21CCN(S(=O)(=O)C2CCOCC2)CC1 [Compound 913127] | IC50 [1, 8]: ≤ 100 nM; IC50 [2, 10]: 100 to 1000 nM
> 5000 | > 5000 |  |  | CC1(C)CC(=O)C2=C(C1)Nc1n[nH]cc1C21CCCN(c2ccncc2)CC1 (stereo not shown) [Compound 932633] | 
 |  | ≤ 100 | ≤ 100 | CC1(C)CC(=O)C2=C(C1)Nc1n[nH]cc1[C@]21CCN(S(=O)(=O)C2CCCC2)C1 [Compound 943482] | IC50 [1, 8]: 100 to 1000 nM; IC50 [2, 10]: 100 to 1000 nM
 |  | ≤ 100 | 100 to 1000 | CCC1(c2cccc(-c3ccnc4c3CCC4)c2)C2=C(CC(C)(C)CC2=O)Nc2n[nH]cc21 (stereo not shown) [Compound 945606] | IC50 [1, 13]: 100 to 1000 nM; IC50 [2, 14]: 1000 to 5000 nM
 |  | ≤ 100 | ≤ 100 | CC[C@]1(c2cccc(-c3ccncc3O)c2)C2=C(CC(C)(C)CC2=O)Nc2n[nH]cc21 [Compound 945724] | IC50 [1, 13]: 100 to 1000 nM; IC50 [2, 14]: 1000 to 5000 nM
100 to 1000 | 1000 to 5000 |  |  | CC1(C)CC(=O)C2=C(C1)Nc1n[nH]cc1[C@]21CO[C@H](C2CC2)C1 [Compound 913184] | 
100 to 1000 | 100 to 1000 |  |  | CCC1(c2cccc(N3CCCCC3C)c2)C2=C(CC(C)(C)CC2=O)Nc2n[nH]cc21 (mixture of isomers) [Compound 885217] | 
 |  | ≤ 100 | ≤ 100 | CC1(C)CC(=O)C2=C(C1)Nc1n[nH]cc1C21CCN(S(=O)(=O)c2cnc3ccccc3c2)CC1 [Compound 947462] | IC50 [1, 8]: 100 to 1000 nM; IC50 [2, 10]: 1000 to 5000 nM
 |  | ≤ 100 | ≤ 100 | CC1(C)CC(=O)C2=C(C1)Nc1n[nH]cc1[C@]21CCCOCC1 [Compound 874535] | 
